Twelve compounds from patent US3947411A, “Novel 1-aryl-2-arylalkyl-3-or-4-[4'-(substituted-alkyl)piperazino-1']butanols- 2-or-butenes-1, and methods of manufacture thereof” (Warner-Lambert Company, priority 1972, dated 1976) can be followed below.

The subject of one data set is Candida albicans. The data set can be described thus: Agar well inhibition zone test against fungi, Candida albicans (Table II). The settings on record: quantity per well giving inhibition zone (500, 50, 5 μg tested); Sabouraud agar, 28°, 48 hours.
A further data set has as its system Staphylococcus aureus. In words: Agar well inhibition zone test against bacteria, Staphylococcus aureus (Table III). The note with it: quantity per well giving inhibition zone (500, 50, 5 μg tested); nutrient agar, 37°, 24 hours.
The test system of data set [1] is Mycobacterium tuberculosis II 37 RV (typus humanus). The data set can be described thus: Efficacy against Mycobacteria, Tb-broth dilution series (Table I). In kind it is cell-based. The note with it: 504 h, Dubos Tb-broth + 10% bovine serum, 21 days, read-out: Minimum Inhibitory Concentration. On the technique in general: In broth dilution the organism is exposed to a series of concentrations in liquid medium.

The next data set has as its system Aspergillus niger. In words: Agar well inhibition zone test against fungi, Aspergillus niger (Table II). The settings on record: quantity per well giving inhibition zone (500, 50, 5 μg tested); Sabouraud agar, 28°, 48 hours.
The subject of the next data set is Escherichia coli. The data set can be described thus: Agar well inhibition zone test against bacteria, Escherichia coli (Table III). The settings on record: quantity per well giving inhibition zone (500, 50, 5 μg tested); nutrient agar, 37°, 24 hours.
The next data set in a line: Solubility in water. In kind it is physicochemical. The settings on record: hydrochlorides or oxalates, read-out: solubilities (in water). On the procedure: The following list contains examples of those compounds which are made according to the methods disclosed. (The individual compounds are identified by elementary analyses and infrared spectra, by ultra-violet or nuclear resonance spectra, if necessary.) Individual melting points and solubilities (in water) are also given as is the method by which each compound is prepared.
The melting points and solubilities are given for the Hydrochlorides I - XVI; XVIII - XXVII; XXIX - XXXV; XXXVII - XLII; XLIV - LXII; LXIV - LXVII, and the Oxalates XVII; […]; XXXVI; LXIII.

For the next data set, the system named is Staph. aureus. The data set can be described thus: Minimum inhibitory concentration for bacteria, tube dilution, Staph. aureus (Table V). The settings on record: Staphylococcus aureus, 48 h, read-out: Minimum Inhibitory Concentration, Staph. aureus.
Data set [2] has as its system C. albicans. In words: Minimum inhibitory concentration for fungi, tube dilution, C. albicans (Table IV). The settings on record: Candida albicans, 48 h, read-out: Minimum Inhibitory Concentration, C. albicans.
Experimental: (§1) A tube dilution series of the respective compound in Sabouraud nutrient broth, whose individual tubes contained concentrations of 1024 μg, 512 μg, 256 μg, 128 μg, 64 μg, 32 μg, 16 μg, 8 μg, 4 μg, 2 μg, 1.1 μg and 0.5 μg/ml, was prepared and inoculated with a photometrically standardized suspension of the test organisms or the spores thereof.
Data set [3] concerns A. niger. In words: Minimum inhibitory concentration for fungi, tube dilution, A. niger (Table IV). The note with it: Aspergillus niger, 48 h, read-out: Minimum Inhibitory Concentration, A. niger.
Experimental: as §1
The test system of data set [4] is C. albicans. The data set can be described thus: Minimum inhibitory concentration for fungi in presence of serum, C. albicans (Table VI). The settings on record: Candida albicans; Sabouraud nutrient broth + 10% bovine serum, 28°C, 48 hours. In kind it is cell-based.
The test system of data set [5] is A. niger. In words: Minimum inhibitory concentration for fungi in presence of serum, A. niger (Table VI). In kind it is cell-based. The settings on record: Aspergillus niger; Sabouraud nutrient broth + 10% bovine serum, 28°C, 48 hours.

Structures are written as SMILES. In brackets after ≈: the same amount, converted by molar mass.

Experimental for Aspergillus niger: The efficacy of the compounds against fungi was tested as follows:
The test organisms, in this case the blastomycete Candida albicans and the mold Aspergillus niger, were inoculated onto Sabouraud agar plates by pouring a photometrically adjusted standard suspension of organisms on the plate. After inoculation, wells with a diameter of 5.0 mm were punched in the agar, and filled with 50 ul of the compound solution mentioned before. The quantity of compound applied thus amounted to 500 μg, 50 μg and 5 μg. After incubation at 28° for 48 hours, the quantity of compound was determined at which an inhibition of the organism's growth, in form of an inhibition zone around the corresponding well, was present.
Experimental for Escherichia coli: The efficacy of the compounds against bacteria was tested as follows:
The test organisms, in this case Staphylococcus aureus and Escherichia coli, were inoculated on nutrient agar as described in Example 12, wells were punched, and the solutions of the compounds were transferred to fill the wells. The quantity of compound in the wells amounted again to 500 μg, 50 μg and 5 μg.
After incubation a 37° for 24 hours the quantity of compound was determined at which an inhibition of the organism's growth, in the form of an inhibition zone around the corresponding well, occurred.
Experimental for Staph. aureus: A tube dilution series of the respective compound in nutrient broth whose individual tubes contained concentrations of 1024 μg, 512 μg, 256 μg, 128 μg, 64 μg, 32 μg, 1 μg, 8 μg, 4 μg, 2 μg, 1.1 μg and 0.5 μg/ml was prepared and inoculated with a photometrically standardized suspension of the test organisms.

For `CC1CN(CCN2CCN(C(C)C(O)(Cc3ccccc3)Cc3ccccc3)CC2)CCO1` (stereo not drawn) [VI, 1-phenyl-2-benzyl-3-{4'-[β-(2"-methyl-morpholino)-ethyl]-piperazino-1'}-butanol-2], in the data set on Candida albicans, the “Inhibition Area at μg, Cand. albicans” value worked out at 500 µg. Besides, the “Inhibition Area at μg, Staph. aureus” value with Staphylococcus aureus is greater than 500 µg. Besides, in [1], the MIC worked out at 100 µg/mL. Moreover, the “Inhibition Area at μg, Asp. niger” value in the data set on Aspergillus niger is 500 µg. The “Inhibition Area at μg, E. coli” value in the data set on Escherichia coli is greater than 500 µg. Besides, the solubility in the data set “Solubility in water” came to 100 mg/mL (≈ 221000 µM).

Regarding `CC1CCCCN1CCN1CCN(C(C)C(=Cc2ccccc2)Cc2ccccc2)CC1` (stereo not drawn) [XXXIII, 1-phenyl-2-benzyl-3-[4'-(β-2"-methyl-piperidinoethyl)-piperazino-1']-butene-1], the MIC with Staph. aureus was found to be 128 µg/mL (≈ 297 µM); with C. albicans [2] it was 256 µg/mL (≈ 593 µM); in [1] it was 20 µg/mL; in the data set on A. niger [3] it was 256 µg/mL (≈ 593 µM). In addition, in the data set with Candida albicans, the “Inhibition Area at μg, Cand. albicans” value was 5 µg. Moreover, in the data set on Staphylococcus aureus, the “Inhibition Area at μg, Staph. aureus” value worked out at 50 µg. Also, the “Inhibition Area at μg, Asp. niger” value with Aspergillus niger worked out at 50 µg. Moreover, the “Inhibition Area at μg, E. coli” value in the data set on Escherichia coli amounted to 500 µg. Moreover, in “Solubility in water”, the solubility was determined as 100 mg/mL (≈ 232000 µM).

`CC(N1CCNCC1)C(O)(Cc1ccccc1)Cc1ccccc1` (stereo not drawn) [L, 1-phenyl-2-benzyl-3-piperazino-butanol-2]: the “Inhibition Area at μg, Cand. albicans” value in the data set with Candida albicans was 50 µg. The “Inhibition Area at μg, Staph. aureus” value with Staphylococcus aureus stood at 500 µg. For the same compound, the MIC with C. albicans [4] worked out at 512 µg/mL; in data set [1], 500 µg/mL. Moreover, the “Inhibition Area at μg, Asp. niger” value with Aspergillus niger was determined as 50 µg. For the same compound, in the data set with Escherichia coli, the “Inhibition Area at μg, E. coli” value is 500 µg. Moreover, the solubility in “Solubility in water” is 10 mg/mL (≈ 30800 µM).

As to `CCC(N1CCN(C)CC1)C(O)(Cc1ccccc1)Cc1ccccc1` (stereo not drawn) [LVIII, 1-phenyl-2-benzyl-3-(4'-methyl-piperazino-1')-pentanol-2], the MIC is 256 µg/mL (≈ 726 µM) in the data set on Staph. aureus, 256 µg/mL (≈ 726 µM) in the data set with C. albicans [2], 100 µg/mL in data set [1] and 128 µg/mL (≈ 363 µM) in the data set with A. niger [3]. In addition, in the data set on Candida albicans, the “Inhibition Area at μg, Cand. albicans” value worked out at 50 µg. In the data set with Staphylococcus aureus, the “Inhibition Area at μg, Staph. aureus” value stood at 50 µg. Besides, the “Inhibition Area at μg, Asp. niger” value with Aspergillus niger was found to be 50 µg. In the data set with Escherichia coli, the “Inhibition Area at μg, E. coli” value was 500 µg. For the same compound, the solubility in the data set “Solubility in water” is less than 10 mg/mL.

Take `CC(N1CCN(CCN2CCN(CCc3ccccc3)CC2)CC1)C(O)(Cc1ccccc1)Cc1ccccc1` (stereo not drawn) [XIV, 1-phenyl-2-benzyl-3-{4'-[β-(4"-β-phenethyl-piperazino-1")-ethyl]-piperazino-1'}-butanol-2]: the MIC in the data set with Staph. aureus amounted to 32 µg/mL (≈ 59.2 µM); with A. niger [5], 64 µg/mL; with C. albicans [2], 32 µg/mL (≈ 59.2 µM); with C. albicans [4], 128 µg/mL; with A. niger [3], 16 µg/mL (≈ 29.6 µM). Moreover, the “Inhibition Area at μg, Cand. albicans” value with Candida albicans was 50 µg. The “Inhibition Area at μg, Staph. aureus” value in the data set on Staphylococcus aureus was determined as 50 µg. In addition, in the data set with Aspergillus niger, the “Inhibition Area at μg, Asp. niger” value is 50 µg. Besides, in the data set with Escherichia coli, the “Inhibition Area at μg, E. coli” value was determined as 500 µg. The solubility in “Solubility in water” stood at 100 mg/mL (≈ 185000 µM).

With `CC(C(=Cc1ccccc1)Cc1ccccc1)N1CC[N+]2(CCCCCC2)CC1` (stereo not drawn) [LXVII, hexahydro-azepinium-1-spiro-1'-piperazinium-4'-(3-benzyl-4-phenyl-but-3-en-2-yl)-chloride], the MIC in the data set on Staph. aureus amounted to 8 µg/mL; with A. niger [5] it was 128 µg/mL; with C. albicans [2], 128 µg/mL; with C. albicans [4] it was 64 µg/mL; in the data set on A. niger [3], 128 µg/mL. The “Inhibition Area at μg, Cand. albicans” value in the data set on Candida albicans was found to be 50 µg. In addition, in the data set with Staphylococcus aureus, the “Inhibition Area at μg, Staph. aureus” value was 50 µg. The “Inhibition Area at μg, Asp. niger” value in the data set with Aspergillus niger stood at 50 µg. For the same compound, in the data set on Escherichia coli, the “Inhibition Area at μg, E. coli” value was determined as 500 µg. Further, in the data set “Solubility in water”, the solubility came out at 10 mg/mL.

For the compound `CCN(CC)CCN1CCN(C(C)C(=Cc2ccccc2)Cc2ccccc2)CC1` (stereo not drawn) [XXVII, 1-phenyl-2-benzyl-3-[4'-(β-diethylamino-ethyl)-piperazino-1']-butene-1], the MIC with Staph. aureus is 256 µg/mL (≈ 631 µM); in the data set with C. albicans [2], 256 µg/mL (≈ 631 µM); in data set [1], 10 µg/mL; in the data set on A. niger [3], 128 µg/mL (≈ 316 µM). In addition, the “Inhibition Area at μg, Cand. albicans” value in the data set with Candida albicans stood at 5 µg. For the same compound, the “Inhibition Area at μg, Staph. aureus” value with Staphylococcus aureus was found to be 50 µg. In addition, in the data set with Aspergillus niger, the “Inhibition Area at μg, Asp. niger” value is 5 µg. The “Inhibition Area at μg, E. coli” value in the data set on Escherichia coli was found to be 500 µg. In the data set “Solubility in water”, the solubility was 100 mg/mL (≈ 247000 µM).

Regarding `CC(N1CCN(CCCl)CC1)C(O)(Cc1ccccc1)Cc1ccccc1` (stereo not drawn) [XLV, 1-phenyl-2-benzyl-3-[4'-(β-chloro-ethyl)-piperazino-1']-butanol-2], the values for the MIC (in the data set with Staph. aureus; in the data set with C. albicans [2]; in [1]) were greater than 1020 µg/mL, greater than 1020 µg/mL and 100 µg/mL, respectively. In addition, the “Inhibition Area at μg, Cand. albicans” value in the data set with Candida albicans turned out to be 50 µg. The “Inhibition Area at μg, Staph. aureus” value in the data set on Staphylococcus aureus stood at 50 µg. In the data set on Aspergillus niger, the “Inhibition Area at μg, Asp. niger” value was determined as 500 µg. For the same compound, the “Inhibition Area at μg, E. coli” value with Escherichia coli was determined as 500 µg. In addition, the solubility in “Solubility in water” is 25 mg/mL (≈ 64600 µM).

As to `CC(N1CCN(CCCCCCN2CCCCC2)CC1)C(O)(Cc1ccccc1)Cc1ccccc1` (stereo not drawn) [XX, 1-phenyl-2-benzyl-3-[4'-(w-piperidino-n-hexyl)-piperazino-1']-butanol-2], the MIC with Staph. aureus was determined as 128 µg/mL (≈ 260 µM); with A. niger [5], 8 µg/mL; with C. albicans [2], 64 µg/mL (≈ 130 µM); in the data set with C. albicans [4], 128 µg/mL; with A. niger [3], 4 µg/mL (≈ 8.13 µM). Also, the “Inhibition Area at μg, Cand. albicans” value in the data set with Candida albicans is 50 µg. The “Inhibition Area at μg, Staph. aureus” value with Staphylococcus aureus stood at 50 µg. Further, the “Inhibition Area at μg, Asp. niger” value with Aspergillus niger is 5 µg. The “Inhibition Area at μg, E. coli” value in the data set on Escherichia coli came out at 500 µg. For the same compound, the solubility in the data set “Solubility in water” came to 100 mg/mL (≈ 203000 µM).

Regarding `CC(N1CCN(Cc2cccnc2)CC1)C(O)(Cc1ccccc1)Cc1ccccc1` (stereo not drawn) [XXIII, 1-phenyl-2-benzyl-3-[4'-(3"-pyridylmethyl)-piperazino-1']-butanol-2], in the data set with Candida albicans, the “Inhibition Area at μg, Cand. albicans” value was determined as 500 µg. The “Inhibition Area at μg, Staph. aureus” value with Staphylococcus aureus was 500 µg. For the same compound, the MIC in data set [1] is 1000 µg/mL. In the data set on Aspergillus niger, the “Inhibition Area at μg, Asp. niger” value was greater than 500 µg. In the data set on Escherichia coli, the “Inhibition Area at μg, E. coli” value was greater than 500 µg. Besides, the solubility in the data set “Solubility in water” was determined as 50 mg/mL (≈ 120000 µM).

On to `CC(C(=Cc1ccccc1)Cc1ccccc1)N1CCN(CCN(C(C)C)C(C)C)CC1` (stereo not drawn) [XXVIII, 1-phenyl-2-benzyl-3-[4'-(β-diisopropylamino-ethyl)-piperazino-1']-butene-1], for which the MIC is 64 µg/mL (≈ 148 µM) in the data set on Staph. aureus; greater than 1020 µg/mL in the data set with A. niger [5]; 64 µg/mL (≈ 148 µM) with C. albicans [2]; 256 µg/mL in the data set with C. albicans [4]; 32 µg/mL (≈ 73.8 µM) with A. niger [3]. Further, the “Inhibition Area at μg, Cand. albicans” value in the data set on Candida albicans is 50 µg. The “Inhibition Area at μg, Staph. aureus” value in the data set with Staphylococcus aureus was 50 µg. Also, the “Inhibition Area at μg, Asp. niger” value in the data set with Aspergillus niger was 50 µg. Moreover, in the data set with Escherichia coli, the “Inhibition Area at μg, E. coli” value worked out at 500 µg. Further, the solubility in the data set “Solubility in water” amounted to 10 mg/mL (≈ 23100 µM).

With `CC1CN(CCN2CCN(C(C)C(=Cc3ccccc3)Cc3ccccc3)CC2)CCO1` (stereo not drawn) [XXXII, 1-phenyl-2-benzyl-3-{4'-[β-(2-methylmorpholino)-ethyl]-piperazino-1'}-butene-1], the figures for the MIC (with Staph. aureus; in [1]; in the data set on A. niger [3]) were 128 µg/mL (≈ 295 µM), 50 µg/mL and 128 µg/mL (≈ 295 µM), respectively. The “Inhibition Area at μg, Cand. albicans” value with Candida albicans amounted to 500 µg. For the same compound, in the data set on Staphylococcus aureus, the “Inhibition Area at μg, Staph. aureus” value came to 50 µg. Also, in the data set on Aspergillus niger, the “Inhibition Area at μg, Asp. niger” value turned out to be 50 µg. For the same compound, the “Inhibition Area at μg, E. coli” value with Escherichia coli was greater than 500 µg. The solubility in “Solubility in water” came out at 100 mg/mL (≈ 231000 µM).
